Test system: granulomatous rosacea
Assay: Case reports: treatment of patients with granulomatous rosacea
Type: in vivo, human
Settings: for clinical response of granulomatous rosacea at follow-up: two months later
Protocol: A patient presented with severe inflammatory diffuse facial granulomatous rosacea. The condition had been present for 6 years.
They were started on oral azithromycin 500 mg daily dose together with an estrogenic hormone, norgestimate/ethinyl estradiol (ORTHO TRI-CYCLEN®, Ortho-McNeil Pharmaceutical, Raritan, N.J.). […] Treatment was continued with a follow-up examination expected in another 6 to 8 weeks.
A patient presented with complaints of a “facial rash”. […] They were started on oral cephalexin. […] Treatment with dicloxicillin was initiated.
Oral azithromycin at a dosage of 500 mg daily was started, together with daily topical application of a sodium sulfacetamide 10% with sulfur 5% cream and a metronidazole cream.
A person presented with a facial rash.
Treatment was initiated with a variety of topical medications, including metronidazole gel, Elidel® (pimecrolimus, Novartis Pharmaceuticals Corp., New York, N.Y.), 2.4% hydrocortisone, and desonide cream.
The next therapy tried was oral doxycycline 100 mg twice daily. […] The patient was then started on Accutane® (Hoffman-LaRoche Inc., Nutley, N.J.) at an initial dosage of 20 mg per day, which was subsequently raised to 40 mg per day and then to 60 mg per day.
Treatment was subsequently initiated with azithromycin as the sole therapy, administered orally at a dosage of 250 mg daily for three weeks.

SMILES: CC1=C(C(=O)O)N2C(=O)[C@@H](NC(=O)[C@H](N)c3ccccc3)[C@H]2SC1 [cephalexin]
- clinical response of facial rash (later diagnosed granulomatous rosacea) (Example 2, patient, oral cephalexin, one month later): worsening pustules and tender nodules

SMILES: CC[C@H]1OC(=O)[C@H](C)[C@@H](O[C@H]2C[C@@](C)(OC)[C@@H](O)[C@H](C)O2)[C@H](C)[C@@H](O[C@@H]2O[C@H](C)C[C@H](N(C)C)[C@H]2O)[C@](C)(O)C[C@@H](C)CN(C)[C@H](C)[C@@H](O)[C@]1(C)O [azithromycin]
- clinical response of granulomatous rosacea at follow-up (Example 1, azithromycin reduced to 500 mg every other day plus daily topical azaleic acid): remained clear
- clinical response of granulomatous rosacea (Example 1, oral azithromycin 500 mg daily together with norgestimate/ethinyl estradiol, 9 weeks after initiation): greatly improved with only minimal residual facial erythema and no residual inflammatory lesions
- clinical response of granulomatous rosacea at follow-up (Example 2, azithromycin decreased to 500 mg every other day, topicals continued): no evidence of residual rosacea
- clinical response of granulomatous rosacea (Example 2, oral azithromycin 500 mg daily with topical sodium sulfacetamide 10%/sulfur 5% cream and metronidazole cream, six weeks after initiation): minimally perceptible residual erythema and papulation
- clinical response of granulomatous rosacea (Example 3, azithromycin as sole therapy, orally 250 mg daily for three weeks): remarkable improvement
- recurrence of granulomatous rosacea (Example 3, following cessation of azithromycin therapy (250 mg daily for three weeks)): has not had a recurrence
- efficacy on signs and symptoms of granulomatous rosacea (general statement) (administered systemically for a period of several weeks or more): effective

SMILES: Cc1onc(-c2c(Cl)cccc2Cl)c1C(=O)N[C@@H]1C(=O)N2[C@@H]1SC(C)(C)[C@@H]2C(=O)O [dicloxicillin]
- clinical response of facial rash (later diagnosed granulomatous rosacea) (Example 2, dicloxicillin, six weeks later): persistent severe to worsening involvement

Source: patent publication US20070105788A1, “Azithromycin for treatment of granulomatous rosacea” (priority 2005, published 2007)
